The values below come from patent publication EP4671247A1, “SUBSTITUTED PYRAZOLOPYRIMIDINE COMPOUND AND PHARMACEUTICAL USE THEREOF” (Japan Tobacco Inc., priority 2023, dated 2024).

pIC50: −log10 of the molar value.

T1 sequence (Q96P20 whole entry): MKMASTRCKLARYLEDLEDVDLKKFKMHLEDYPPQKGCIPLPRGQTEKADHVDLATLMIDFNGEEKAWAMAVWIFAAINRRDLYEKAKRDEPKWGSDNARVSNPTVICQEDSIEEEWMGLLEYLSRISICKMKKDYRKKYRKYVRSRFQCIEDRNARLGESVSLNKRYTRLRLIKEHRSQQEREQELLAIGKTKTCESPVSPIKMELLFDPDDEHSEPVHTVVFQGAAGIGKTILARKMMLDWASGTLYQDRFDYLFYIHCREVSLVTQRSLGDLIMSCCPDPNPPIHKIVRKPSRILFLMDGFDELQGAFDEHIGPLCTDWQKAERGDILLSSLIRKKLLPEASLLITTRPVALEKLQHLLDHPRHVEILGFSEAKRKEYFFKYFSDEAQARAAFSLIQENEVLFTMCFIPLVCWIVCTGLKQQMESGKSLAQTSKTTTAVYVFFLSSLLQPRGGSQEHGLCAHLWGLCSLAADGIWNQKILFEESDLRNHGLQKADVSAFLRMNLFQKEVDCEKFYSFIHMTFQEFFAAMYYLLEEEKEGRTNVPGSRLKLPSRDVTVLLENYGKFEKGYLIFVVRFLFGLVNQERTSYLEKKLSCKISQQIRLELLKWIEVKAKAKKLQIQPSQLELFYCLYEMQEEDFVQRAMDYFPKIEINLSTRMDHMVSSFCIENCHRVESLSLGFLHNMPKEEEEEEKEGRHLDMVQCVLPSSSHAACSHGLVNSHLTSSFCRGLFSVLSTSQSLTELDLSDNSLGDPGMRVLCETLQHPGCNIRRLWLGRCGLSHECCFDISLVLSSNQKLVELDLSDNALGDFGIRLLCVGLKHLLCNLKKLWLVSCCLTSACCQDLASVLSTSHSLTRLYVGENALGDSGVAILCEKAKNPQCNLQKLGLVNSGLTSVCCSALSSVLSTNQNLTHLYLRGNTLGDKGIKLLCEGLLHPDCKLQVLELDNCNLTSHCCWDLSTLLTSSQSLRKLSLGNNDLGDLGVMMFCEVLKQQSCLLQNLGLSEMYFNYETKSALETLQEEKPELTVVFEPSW

The first assay addresses T1, NLRP3 inflammasome (Homo sapiens, UniProt Q96P20).
T1 construct: host or cells: THP1-Null cells (PMA-differentiated, LPS-primed, nigericin-stimulated)
As to the kind of experiment: Evaluation of NLRP3 inflammasome inhibitory activity (inhibition of IL-1β production in LPS/Nigericin-stimulated THP1-Null cells, AlphaLISA). It is filed as cell-based. Conditions: IC50, IL-1β production in THP1-Null cells; PMA, 1 µg/mL Lipopolysaccharides 3 hours, Nigericin 7.5 µmol/L 1.5 hours. The procedure: The NLRP3 inflammasome inhibitory activity of test compounds were evaluated on the basis of the inhibitory activity of the IL-1β production in THP1-Null cells (Product Number: thp-null, InvivoGen).
The supernatant of the culture was removed, and thereto was added media for assay (25 µL/well) containing 1 µg/mL Lipopolysaccharides (Product Number: L2654, Sigma-Aldrich (registered trademark)). […] The supernatant of the culture was removed. […] A solution containing a test compound (20 µL/well) was added to test compound-setting wells. […] The supernatant of the culture was cryonically stored (set at -20°C) until measurement of IL-1β.
The amount of IL-1β in the culture supernatant was quantitated with AlphaLISA (registered trademark) Human IL-1β Detection Kit (Product Number: AL220C, Perkin Elmer). Fluorescence intensity was measured with a microplate reader EnSpier (Model number: 2300-00J, Perkin Elmer) or EnSight (Model number: HH34000000, Perkin Elmer) according to procedure manuals attached thereto. Inhibition rates of the test compound-setting wells were calculated on the basis of 100% for the blank-setting wells and 0% for the control-setting wells.
As to `Cc1cc(C(C)(C)F)cc(C)c1-n1cc2c(=O)[nH]c(C3CC3)nc2n1` [Example 85], the pIC50 was 7.54.

The assay is the same for the next values; noted with them: IL-1β production in THP1-Null cells; PMA, 1 µg/mL Lipopolysaccharides 3 hours, Nigericin 7.5 µmol/L 1.5 hours.
Turning to `Cc1cc(C2CC2)cc(C)c1-n1cc2c(=O)[nH]c(C3CCOC3)nc2n1` (racemic) [Example 29], the pIC50 was 8.05.
As to `Cc1cc(OC(F)F)cc(C)c1-n1cc2c(=O)[nH]c(C3CCOCCO3)nc2n1` (single isomer, unassigned) [Example 194], the pIC50 is 7.00.
On the same count and under the same terms, with `Cc1cc(C2CC2)cc(C)c1-n1cc2c(=O)[nH]c(C(O)C(F)F)nc2n1` (single isomer, unassigned) [Example 169] the figure was 7.59; with `Cc1cc(C2CC2)cc(C)c1-n1cc2c(=O)[nH]c(C(O)C(F)F)nc2n1` (racemic) [Example 158], 7.59.

Still in this assay, the particulars now being: IL-1β production in THP1-Null cells; PMA, 1 µg/mL Lipopolysaccharides 3 hours, Nigericin 7.5 µmol/L 1.5 hours; read-out: IC50.
Turning to `Cc1cc(Br)cc(C)c1-n1cc2c(=O)[nH]c(C3CC(F)(F)CCO3)nc2n1` (racemic) [Example 184], the pIC50 is 7.29.
Still for that read-out and setting: with `Cc1cc(OC(F)F)cc(C)c1-n1cc2c(=O)[nH]c([C@H](C)O)nc2n1` (single isomer, unassigned) [Example 166] the figure was 5.89; with `COCc1cc(OC(F)F)cc(C)c1-n1cc2c(=O)[nH]c(C3CC3)nc2n1` [Example 76], 7.09; with `Cc1cc(Br)cc(C)c1-n1cc2c(=O)[nH]c(C3=CCOCC3)nc2n1` [Example 102], 8.10.
On the same count and under the same terms, next, `Cc1cc(C(C)(F)F)cc(C)c1-n1cc2c(=O)[nH]c(COC(F)F)nc2n1` [Example 202]: 7.40; `Cc1cc(C2CC2)cc(C)c1-n1cc2c(=O)[nH]c(C3CC(F)(F)CCO3)nc2n1` (racemic) [Example 197]: 7.44; `Cc1ccc(-n2cc3c(=O)[nH]c(C4CCCO4)nc3n2)c(C)c1` (racemic) [Example 31]: 6.10.
`Cc1nc2nn(-c3c(C)cc(C4CC4)cc3C)cc2c(=O)[nH]1` [Example 19]: the pIC50 was 6.77.
The same measure, in the same setting: with `Cc1cc(C(F)(F)F)cc(C)c1-n1cc2c(=O)[nH]c(C3CC3)nc2n1` [Example 55] the figure was 7.51.
On the same count and under the same terms, next, `Cc1cc(C(C)(F)F)cc(C)c1-n1cc2c(=O)[nH]c([C@H]3C[C@@H]3F)nc2n1` (single isomer, unassigned) [Example 147]: 7.62; `CCNC(=O)c1nc2nn(-c3c(C)cc(C4CC4)cc3C)cc2c(=O)[nH]1` [Example 205]: 7.96.
Still for that read-out and setting: next, `COC(Cc1nc2nn(-c3c(C)cc(Br)cc3C)cc2c(=O)[nH]1)C(F)(F)F` (racemic) [Example 127]: 7.14.
As to `Cc1cc(C2CC2)cc(C)c1-n1cc2c(=O)[nH]c(C3CC3(F)F)nc2n1` (racemic) [Example 114], the negative logarithm of the IC50 (pIC50) is 7.77.
Still for that read-out and setting: next, `Cc1cc(C2CC2)cc(C)c1-n1cc2c(=O)[nH]c(COC(F)F)nc2n1` [Example 145]: 7.89; `Cc1cc(C2CC2)cc(C)c1-n1cc2c(=O)[nH]c(C3CCC3)nc2n1` [Example 22]: 7.92.
The same measure, in the same setting: next, `Cc1cc(Br)cc(C)c1-n1nc2nc(C3CCOCC3)[nH]c(=O)c2c1C(F)F` [Example 82]: 7.80.
On the same count and under the same terms, next, `Cc1nn(C2CCC2)c(C)c1-n1cc2c(=O)[nH]c(C3CC3)nc2n1` [Example 59]: 5.77.
As to `Cc1cc(Br)cc(C)c1-n1cc2c(=O)[nH]c(CN3CCCC3=O)nc2n1` [Example 66], the pIC50 is 6.37.
Same read-out and setting: next, `COc1cc(C)c(-n2cc3c(=O)[nH]c(C4CC4)nc3n2)c(C)c1` [Example 53]: 6.85; `Cc1cc(C2CC2)cc(C)c1-n1cc2c(=O)[nH]c(C#N)nc2n1` [Example 199]: 6.62; `Cc1cc(C2CC2)cc(C)c1-n1cc2c(=O)[nH]c(CO)nc2n1` [Example 105]: 7.89.
On the same count and under the same terms, with `CCc1nc2nn(-c3c(C)cc(C(C)(F)F)cc3C)cc2c(=O)[nH]1` [Example 181] the figure was 7.74; with `Cc1ccc(-n2cc3c(=O)[nH]c(C4CCS(=O)(=O)C4)nc3n2)c(C)c1` (racemic) [Example 32], 6.57; with `Cc1cc(C2CC2)cc(C)c1-n1cc2c(=O)[nH]c(C(=O)NCC(F)F)nc2n1` [Example 204], 7.30.
Same read-out and setting: with `Cc1cc(Br)cc(C)c1-n1cc2c(=O)[nH]c(C34CCC(CO3)C4)nc2n1` (racemic) [Example 117] the figure was 6.62; with `Cc1cc(Br)cc(C)c1-n1cc2c(=O)[nH]c(COCCC(C)(C)O)nc2n1` [Example 74], 6.72.
As for `Cc1cc(C(C)(F)F)cc(C)c1-n1cc2c(=O)[nH]c(C3=CCOCC3)nc2n1` [Example 153], the pIC50 was 7.77.
As for `Cc1cc(C2CC2)cc(C)c1-n1cc2c(=O)[nH]c(C3(F)CC3)nc2n1` [Example 48], the negative logarithm of the IC50 (pIC50) is 7.64.
Same read-out and setting: with `COCc1nc2nn(-c3ccc(C)cc3C)cc2c(=O)[nH]1` [Example 5] the figure was 6.24; with `Cc1cc(C2CC2)cc(OC(F)F)c1-n1cc2c(=O)[nH]c(C3CC3)nc2n1` [Example 75], 7.96; with `O=c1[nH]c(C2CC2)nc2nn(-c3ccc(C4CC4)cc3C(F)(F)F)cc12` [Example 198], 7.96.
Same read-out and setting: next, `Cc1cc(C2CC2)cc(C)c1-n1cc2c(=O)[nH]c(C3CCOCCO3)nc2n1` (racemic) [Example 163, (RS)-2-(4-cyclopropyl-2,6-dimethylphenyl)-6-(1,4-dioxepan-5-yl)-2,5-dihydro-4H-pyrazolo[3,4-d]pyrimidin-4-one]: 7.64; `Cc1cc(Br)cc(C)c1-n1cc2c(=O)[nH]c(C3COCCO3)nc2n1` (racemic) [Example 28]: 6.72.
As to `Cc1cc(C2CC2)cc(C)c1-n1cc2c(=O)[nH]c(CCO)nc2n1` [Example 106], the negative-log IC50 (pIC50) was 7.55.
On the same count and under the same terms, next, `COCc1nc2nn(-c3c(C)cc(C(C)(F)F)cc3C)cc2c(=O)[nH]1` [Example 200]: 7.12.
On the same count and under the same terms, with `CC(=O)c1nc2nn(-c3c(C)cc(C(C)(F)F)cc3C)cc2c(=O)[nH]1` [Example 206] the figure was 6.44; with `Cc1cc(C2CC2)cc(C)c1-n1cc2c(=O)[nH]c(C3COC3)nc2n1` [Example 39], 7.80.
As to `COc1cc(C2CC2)ccc1-n1cc2c(=O)[nH]c(C3CC3)nc2n1` [Example 26], the pIC50 was 7.12.
On the same count and under the same terms, with `Cc1cc(C2CC2)cc(C)c1-n1cc2c(=O)[nH]c(C34COC(C)(C3)C4)nc2n1` [Example 52] the figure was 7.40.
Turning to `Cc1ccc(-n2cc3c(=O)[nH]c(C)nc3n2)c(C)c1` [Example 4], the pIC50 is 6.27.
On the same count and under the same terms, next, `COc1cc(C)c(-n2cc3c(=O)[nH]c(COCc4ccccc4)nc3n2)c(C)c1` [Example 67]: 6.11; `Cc1cc(Br)cc(C)c1-n1cc2c(=O)[nH]c(CC3COCCO3)nc2n1` (racemic) [Example 113]: 6.85; `Cc1cc(Br)cc(C)c1-n1cc2c(=O)[nH]c(C3CC(F)(F)CO3)nc2n1` (racemic) [Example 189]: 7.15.
On the same count and under the same terms, next, `Cc1cc(Br)cc(C)c1-n1cc2c(=O)[nH]c(C3CC3C(=O)N(C)C)nc2n1` (racemic) [Example 149]: 7.66; `Cc1cc(Br)cc(C)c1-n1cc2c(=O)[nH]c(C(O)C3CC3)nc2n1` (racemic) [Example 140]: 7.34.
The same measure, in the same setting: next, `Cc1cc(Br)cc(C)c1-n1cc2c(=O)[nH]c(C3(C#N)CC3)nc2n1` [Example 30]: 6.55; `COCC(O)Cc1nc2nn(-c3c(C)cc(C4CC4)cc3C)cc2c(=O)[nH]1` (racemic) [Example 143]: 7.07; `COCCc1nc2nn(-c3c(C)cc(C4CC4)cc3C)cc2c(=O)[nH]1` [Example 99]: 7.37.
`Cc1cc(OC(F)F)cc(C)c1-n1cc2c(=O)[nH]c(C3CC(C)OC(C)C3)nc2n1` (centres unmarked) [Example 89]: the pIC50 was 6.35.
On the same count and under the same terms, with `Cc1cc(C(C)(F)F)cc(C)c1-n1cc2c(=O)[nH]c(C3CC3(F)F)nc2n1` (racemic) [Example 125] the figure was 7.62; with `Cc1cc(C2CC2)cc(F)c1-n1cc2c(=O)[nH]c(C3CC3)nc2n1` [Example 20], 7.89.
On the same count and under the same terms, with `Cc1cc(C2CC2)cc(C)c1-n1cc2c(=O)[nH]c(C3CC(F)(F)C3)nc2n1` [Example 45] the figure was 8.15.

Staying with this assay, now noted: test compound at 0.002 µM; IL-1β production in THP1-Null cells.
On to `Cc1cc(OC(F)F)cc(C)c1-n1cc2c(=O)[nH]c(C3=COCC3)nc2n1` [Example 175], for which the inhibition at 0.002 µM was 54%.

The assay is the same for the next values; noted with them: test compound at 2.4 µM; IL-1β production in THP1-Null cells.
In the case of `COC(=O)Cn1c(C)nc2nn(-c3ccc(C)cc3C)cc2c1=O` [Example 14], the inhibition at 2.4 µM was -13%.
`Cc1ccc(-n2cc3c(=O)n(CC(=O)O)c(C)nc3n2)c(C)c1` [Example 15]: the inhibition at 2.4 µM is -3%.

Still in this assay, the particulars now being: test compound at 24 µM; IL-1β production in THP1-Null cells.
In the case of `COc1nc(C)nc2nn(-c3ccc(C)cc3C)cc12` [Example 12], the inhibition at 24 µM was 26%.
Still for that read-out and setting: with `COc1nc(C)nc2nn(-c3c(C)cc(Br)cc3C)cc12` [Example 210, 2-(4-bromo-2,6-dimethylphenyl)-4-methoxy-6-methyl-2H-pyrazolo[3,4-d]pyrimidine] the figure was 9%.

A word on the pIC50: it is the negative decadic logarithm of the IC50, by convention in mol/L. Broadly, the inhibition is the drop in the measured response relative to a control, in per cent.
